# Patent US20180221343A1, “PHARMACEUTICAL COMPOSITION FOR PREVENTING OR TREATING MACULAR DEGENERATION” (KOREA RESEARCH INSTITUTE OF CHEMICAL TECHNOLOGY, priority 2011, published 2018)
# Columns and labels:
# [1] = tested on: rat corneal epithelial wound; assay: Corneal Wound Healing Assay (1); type: in vivo, SD rats; settings: topical 10 mg/ml (1%) every 6 hour; observed at 0 and 18 hours
# Method: (§1) SD rats (male, 8 weeks, 250 g) were used. Animal study protocol was in accordance with the Association for Research in Vision and Ophthalmology Statement for the Use of Animals in Ophthalmic and Visual Research. All animals were housed in individual cages and maintained under standard conditions (12 hour light-dark cycle).
# (§2) 2. Corneal Epithelium Removal Rats were anesthetized by Zoletil® (50 mg/kg, Tiletamina 25 mg, Zolazepam 25 mg; Vibrac, Carros, France) and Rompun® (10 mg/kg, Bayer, France). The cornea was anesthetized by topical 0.5% proparacaine (Alcaine®; Alcon, Fort Worth, Tex., USA). After applying 0.5% proparacaine drops, 5.0 mm Trephine Blade® (Katena, Denville, N.J., USA) was placed and fixed firmly on the corneal surface. One drop of 20% ethanol were put into the tephine well and left in place for 30 seconds, then absorbed with a dry cellulose sponge (Merocel®; Medtronic Solan, Jacksonville, Fla., USA) and irrigated with normal saline. And the epithelium was removed in 6.0 mm diameter.
# The drugs were each topically applied in 10 mg/ml (1%) concentration (in 5% DMSO, 10% PEG (Mw 400) and 85% saline (0.9% NaCl)) in every 6 hour.
# (§3) The corneal wounds were captured by digital camera under cobalt blue light and the defect area was analyzed by Image J software (Ver 4.1, NIH). The significance between Vehicle and each group was analyzed by paired T-test, and the significance of the test was analyzed by One Way ANOVA analysis.
# [2] = tested on: rat corneal epithelial wound; assay: Corneal Wound Healing Assay (2); type: in vivo, SD rats; settings: topical 3 and 6 mg/ml every 6 hour; observed at 0 and 18 hours
# Method: as §1
# as §2, with “Rats” for “2. Corneal Epithelium Removal Rats”
# The drugs were each topically applied in 3 mg/ml (0.3%) and 6 mg/ml (0.6%) concentrations (in 5% DMSO, 10% PEG (Mw 400) and 85% saline (0.9% NaCl)) in every 6 hour, respectively.
# as §3
# corneal angiogenesis [3] = assay: Inhibitory effects against corneal angiogenesis in animal models having corneal damage (subconjunctival injection); type: in vivo, Sprague Dawley rats; settings: subconjunctival injection 20 μl; KR 0.3 mg/ml, Avastin 10 mg/ml; 1 week after administration
# Method: (§4) The tests were performed by using Sprague Dawley rats (8 weeks old, male) as animals having corneal damage (15 rats for the experiment group; and 1 rat for normal group, respectively). The corneal damage was induced by applying a cotton swab coated with silver nitrate to the surface of the rat corneas, as as to induce a damage having a diameter of 2 mm in the central cornea. On the third day after inducing the corneal damages, we confirmed the establishment of corneal angiogenesis-inducing models and then subconjunctivally injected a solution (20 μl) prepared by dissolving the compound of Preparation Example 23, i.e., (2R,3R,4S)-6-amino-4-[N-(4-chlorophenyl)-N-(1H-imidazol-2-ylmethyl)amino]-3-hydroxy-2-methyl-2-dimethoxymethyl-3,4-dihydro-2H-1-benzopyran (KR-31831) in phosphate buffered saline (PBS) containing 10% PEG 400, in the concentration of 0.3 mg/ml. In case of the control group, the PBS (20 μl) containing 10% PEG 400 was subconjunctivally injected. As a positive control, a solution (20 μl) prepared by dissolving Avastin (used as an angiogenesis inhibitor) in PBS in the concentration of 10 mg/ml was subconjunctivally injected. The evaluations quantifying the photographs of FIG. 1 were performed by using the Image J (NIH, USA) program and the results thereof were shown in FIG. 2.
# corneal angiogenesis [4] = assay: Inhibitory effects against corneal angiogenesis, subconjunctival injection and eye drop-administration; type: in vivo, Sprague Dawley rats; settings: subconjunctival injection 20 μl plus eye drop 50 μl; KR 0.3 mg/ml, Avastin 10 mg/ml
# Method: as §4, with “In case of the control group, the PBS (20 μl) containing 10% PEG 400 was subconjunctivally injected. As a positive control, a solution (20 μl) prepared by dissolving Avastin (used as an angiogenesis inhibitor) in PBS in the concentration of 10 mg/ml was subconjunctivally injected.” left out
# Except for performing both the subconjunctival injection and the eye drop-administration of (2R,3R,4S)-6-amino-4-[N-(4-chlorophenyl)-N-(1H-imidazol-2-ylmethyl)amino]-3-hydroxy-2-methyl-2-dimethoxymethyl-3,4-dihydro-2H-1-benzopyran and Avastin, the inhibitory effects against angiogenesis were evaluated according to the same manners as in Example 1. […]
# VEGF receptor 2 (FLK-1) = assay: Expression of VEGF receptor 2 (FLK-1) in corneal tissue by RT-PCR; type: in vivo, rats; settings: subconjunctival injection 20 μl; KR 0.3 mg/ml, Avastin 10 mg/ml
# Method: The tests were performed for confirming corneal angiogenesis as a marker. To a Trizole™ solution (200 μl), were added each corneal tissue obtained from the rats of Example 1. Total RNAs were isolated and then cDNAs were prepared by using a reverse transcriptase. Each cDNA (5 μl) was mixed with the primer set of FLK-1 and then PCR amplication was performed in a thermocycler under the following conditions; denaturation at 94° C. for 5 minutes, and then 35 cycles of denaturation at 94° C. for 20 seconds, annealing at 58° C. for 1 minute, and extension at 72° C. for 25 seconds. Each PCR product was loaded on 1% agarose gel; and the resulting ethidium bromide fluorescent bands were identified.
# retinal angiogenesis = assay: Laser-induced retinal damage model, retinal angiogenesis by dextran-FITC fluorescence; type: in vivo, Brown Norway rats; settings: Avastin 2.5 mg/ml, 10 μl into the vitreous humor; 2 weeks after administration
# Method: The tests were performed by using Brown Norway rats (8 weeks old, male) as animals having retinal damage (15 rats for the experiment group; and 1 rat for normal group, respectively). The retinal Bruch's membrane of each Brown Norway rat was damaged using a Zeiss 532s laser at the intensity of […], 30 ms. On the third day after the laser-damaging, the drug was administered into the vitreous humor in order to observe the retinal vessels. The compound of the present invention, i.e., (2R,3R,4S)-6-amino-4-[N-(4-chlorophenyl)-N-(1H-imidazol-2-ylmethyl)amino]-3-hydroxy-2-methyl-2-dimethoxymethyl-3,4-dihydro-2H-1-benzopyran was administered with the solutions (10 μl of each solution) obtained by dissolving in PBS containing 30% PEG 400 and 10% DMSO, in the concentrations of 0.1 mg/ml and 0.3 mg/ml. Avastin was administered with the solution (10 μl) obtained by dissolving in PBS in the concentration of 2.5 mg/ml. In case of the control group, the PBS (10 μl) was administered. In addition, (2R,3R,4S)-6-amino-4-[N-(4-chlorophenyl)-N-(1H-imidazol-2-ylmethyl)amino]-3-hydroxy-2-methyl-2-dimethoxymethyl-3,4-dihydro-2H-1-benzopyran was intraperitoneally administered with the solution obtained by dissolving in PBS containing 30% PEG 400 and 10% DMSO, in the dose of 25 mg/kg. 2 weeks after the drug administrations, dextran-FITC was injected into the left ventricle in the dose of 25 mg/kg, followed by enucleating the eye after 5 minutes therefrom; and then fixing in a 10% formalin solution. The cornea and the eye lens were removed from the fixed eye, which was then observed under a fluorescence microscope. Angiogenesis was identified by the intensity and leakage of dextran-FITC in the laser-induced damage site; and the results thereof were shown in FIG. 7. The evaluations quantifying the photographs of FIG. 7 were performed by using the Image J (NIH, USA) program and the results thereof were shown in FIG. 8.
inhibitory effect on normal healing of rat corneal epithelial wound [1],inhibitory effect on normal healing of rat corneal epithelial wound [2],Compound,rate (%) of wound healing compared to vehicle control and KR-31831 (rank) [1],corneal angiogenesis in comparison with the corneal angiogenesis (100%) of the control group (corneal angiogenesis [3]) [%],angiogenesis in comparison with the angiogenesis (100%) of the control group (corneal angiogenesis [4]) [%],FLK-1 expression in the cornea (control group 100%) (VEGF receptor 2 (FLK-1)),fluorescence intensity at laser-induced damage site (surrounding vessels = 100) (retinal angiogenesis)
showed inhibitory effect,showed inhibitory effect,CNC1(C)C2CCC(C2)C1(C)C (stereo not shown) [ATG-003],the second lowest rate (%) of wound healing,,,,
,,"Avastin: protein drug used in anti-VEGF antibody injection therapy; used as an angiogenesis inhibitor, positive control",,66.4±10.6,29.3±8.6,about 59%,46±3
showed inhibitory effect,showed inhibitory effect,Cc1ccc(Nc2nccc(N(C)c3ccc4c(C)n(C)nc4c3)n2)cc1S(N)(=O)=O [Pazopanib],the least lowest rate (%) of wound healing among the three but lower than the control,,,,
showed inhibitory effect,showed inhibitory effect,Cc1cc(-c2cc(OC(=O)c3ccccc3)ccc2Cl)cc2nnc(Nc3ccc(OCCN4CCCC4)cc3)nc12 [TG100801],the lowest rate (%) of wound healing,,,,
